Laboratory results as given in patent US20160120938A1, “P2X7 RECEPTOR AGONIST FOR USE IN PREVENTING OR TREATING KIDNEY INJURY” (UCL BUSINESS PLC, priority 2013, published 2016).

How the values were obtained:
Type in all cases: in vivo
P2X7R [1] = target: T1, P2X7R (Rattus norvegicus, UniProt Q64663); test: Creatinine in BDL rats given LPS infusion with intra-renal P2X7R agonist; conditions: LPS 0.25 mg/kg iv over 3 hours
T1 construct: upregulation of the tubular expression of the P2X7R; from tissue; host or cells: kidney of living Sprague-Dawley rats (sham, BDL, BDL+LPS); compounds dosed in vivo
T1 sequence (Q64663 1-595): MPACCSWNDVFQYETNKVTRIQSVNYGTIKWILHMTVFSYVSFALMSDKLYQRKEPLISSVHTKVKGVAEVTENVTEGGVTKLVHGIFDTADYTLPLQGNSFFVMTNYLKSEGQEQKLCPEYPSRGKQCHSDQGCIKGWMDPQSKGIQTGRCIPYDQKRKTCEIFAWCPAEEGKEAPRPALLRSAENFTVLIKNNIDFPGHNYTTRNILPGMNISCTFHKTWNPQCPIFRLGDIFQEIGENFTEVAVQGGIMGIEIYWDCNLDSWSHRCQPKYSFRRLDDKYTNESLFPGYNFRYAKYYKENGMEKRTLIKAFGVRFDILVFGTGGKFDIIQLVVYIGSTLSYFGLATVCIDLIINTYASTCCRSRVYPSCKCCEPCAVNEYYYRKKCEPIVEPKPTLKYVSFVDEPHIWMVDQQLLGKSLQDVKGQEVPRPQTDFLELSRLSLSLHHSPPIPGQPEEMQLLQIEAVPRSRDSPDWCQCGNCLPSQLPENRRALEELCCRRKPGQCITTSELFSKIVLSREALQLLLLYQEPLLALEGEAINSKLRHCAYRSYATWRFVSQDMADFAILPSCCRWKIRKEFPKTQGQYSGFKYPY
Text: (§1) These experiments utilised an established animal model of cirrhosis, the bile duct ligated (BDL) rat. BDL rats may be generated by methods known in the art. For example, male Sprague-Dawley rats (200-250 g) may be used for this procedure. Following anaesthetisation, a mid-line laparotamy may be performed, the bile duct exposed, triply ligated with 4.0 silk suture, and severed between the second and third ligature. The wound is then closed in layers with absorbable suture, and the animal allowed to recover in a quiet room before being returned to the animal storage facility. Sham animals underwent sham laparotomy. The BDL model was studied 4 weeks after bile duct ligation and liver histology confirmed advanced fibrosis.
Rats were given a continuous intravenous infusion of LPS at 0.25 mg/kg over 3 hours. The P2X7R agonist BzATP was infused into the renal artery 30 mins before LPS infusion began and continued for the duration of the experiment at a dose of 150 μg/hour.

P2X7R [2] = target: T1, P2X7R; test: Biomarkers of acute kidney injury in cirrhotic AKI model (BDL rat + LPS) with P2X7R antagonist; conditions: 300 μmol/kg 12-hourly 7 days before LPS 0.5 mg/kg IP, terminated 3 hours post LPS
Text: as §1
(§2) LPS (lipopolysaccharide) was given at a dose of 0.5 mg/kg intra-peritoneal. The P2X7R antagonist (A-438079) was given at a dose of 300 μmol/kg 12-hourly 7 days before LPS was given (if applicable). Animals were terminated 3 hours post LPS dose. P2X7RA=P2X7R antagonist.
(§3) Urine was collected for assessment of urinary biomarkers of acute kidney injury (AKI). Blood was collected for biochemistry, endotoxin and cytokine analysis. Tissue was collected for histology, immunohistochemistry and western blot. Brain frontal cortex was collected to ascertain brain water. Biochemistry was measured using COBAS integra. Urinary NGAL was measured by ELISA.

P2X7R [3] = target: T1, P2X7R; test: P2X7 receptor expression in kidneys, cirrhotic AKI model (BDL rat + LPS), immunohistochemistry; conditions: 300 μmol/kg IP 12-hourly for 7 days, with or without LPS 0.5 mg/kg IP, n=3 in each group, FIG. 3
Text: as §1, §2
as §3, with “ELISA. […]” for “ELISA.”

2′(3′)-O-(4-Benzoylbenzoyl)adenosine-5′-triphosphate [BzATP]
Creatinine (mean) (P2X7R [1]; BDL + LPS + BzATP group, 150 μg/hour into renal artery): 57.93 µmol/L
reduction of LPS induced rise in creatinine (P2X7R [1]; BDL rat, infused into renal artery 150 μg/hour from 30 mins before LPS, FIG. 7): 24%

Clc1cccc(-c2nnnn2Cc2cccnc2)c1Cl [A-438079]
biomarkers of acute kidney injury (urine NGAL, creatinine) compared to the other groups (P2X7R [2]; FIG. 4): greater
biomarkers of acute kidney injury (urine NGAL, creatinine) compared to the other groups (P2X7R [2]; FIG. 4, listed as P2X7R antagonist): higher
increased P2X7 receptor expression in kidneys (tubular expression) of BDL and BDL+LPS animals (P2X7R [3]): attenuated
